Assay results from patent publication US20250161289A1, “KAT6 Targeting Compounds” (Prelude Therapeutics Incorporated, priority 2023, published 2025).

Molecular target: T1, KAT6A (Homo sapiens, UniProt Q92794)
T1 construct: expressed in transfected cells; host or cells: HeLa
Test: HiBit KAT6A Degradation Assessment
Format: cell-based
Details: HeLa cells with a HiBit tagged KAT6A; for Dmax: HeLa
Experimental: The degradation activity of compounds was evaluated by measuring levels of KAT6A protein using the HiBiT system. These studies were conducted in HeLa cells with a HiBit tagged KAT6A. Cells were maintained in a 37° C. incubator at 5% CO2 in EMEM or DMEM (ATCC, 30-2003) supplemented with 10% v/v FBS (Gibco, 26140-079) and 1% penicillin streptomycin. Cells were seeded in 384-well plates at a density of 2,000 cells/well. Compounds dissolved in DMSO were added in 9-point serial dilution. After 18-24 h of treatment, KAT6A levels were measured using the Nano-Glo® HiBiT Lytic Detection System (Promega catalog number N3030) per manufacturer's instructions. Luminescence signal was measured with a multimode plate reader (Envision 2105, Perkin Elmer or PHERAStar FSX, BMG Labtech). Luminescence values were normalized to background and DMSO controls to quantify KAT6A for each condition. Results were analyzed, and DC50 and Dmax values obtained using a four-parameter logistic curve fit. The results are summarized in Table 3 (18 h of treatment) and Table 4 (24 h of treatment).

T1 sequence (Q92794 whole entry): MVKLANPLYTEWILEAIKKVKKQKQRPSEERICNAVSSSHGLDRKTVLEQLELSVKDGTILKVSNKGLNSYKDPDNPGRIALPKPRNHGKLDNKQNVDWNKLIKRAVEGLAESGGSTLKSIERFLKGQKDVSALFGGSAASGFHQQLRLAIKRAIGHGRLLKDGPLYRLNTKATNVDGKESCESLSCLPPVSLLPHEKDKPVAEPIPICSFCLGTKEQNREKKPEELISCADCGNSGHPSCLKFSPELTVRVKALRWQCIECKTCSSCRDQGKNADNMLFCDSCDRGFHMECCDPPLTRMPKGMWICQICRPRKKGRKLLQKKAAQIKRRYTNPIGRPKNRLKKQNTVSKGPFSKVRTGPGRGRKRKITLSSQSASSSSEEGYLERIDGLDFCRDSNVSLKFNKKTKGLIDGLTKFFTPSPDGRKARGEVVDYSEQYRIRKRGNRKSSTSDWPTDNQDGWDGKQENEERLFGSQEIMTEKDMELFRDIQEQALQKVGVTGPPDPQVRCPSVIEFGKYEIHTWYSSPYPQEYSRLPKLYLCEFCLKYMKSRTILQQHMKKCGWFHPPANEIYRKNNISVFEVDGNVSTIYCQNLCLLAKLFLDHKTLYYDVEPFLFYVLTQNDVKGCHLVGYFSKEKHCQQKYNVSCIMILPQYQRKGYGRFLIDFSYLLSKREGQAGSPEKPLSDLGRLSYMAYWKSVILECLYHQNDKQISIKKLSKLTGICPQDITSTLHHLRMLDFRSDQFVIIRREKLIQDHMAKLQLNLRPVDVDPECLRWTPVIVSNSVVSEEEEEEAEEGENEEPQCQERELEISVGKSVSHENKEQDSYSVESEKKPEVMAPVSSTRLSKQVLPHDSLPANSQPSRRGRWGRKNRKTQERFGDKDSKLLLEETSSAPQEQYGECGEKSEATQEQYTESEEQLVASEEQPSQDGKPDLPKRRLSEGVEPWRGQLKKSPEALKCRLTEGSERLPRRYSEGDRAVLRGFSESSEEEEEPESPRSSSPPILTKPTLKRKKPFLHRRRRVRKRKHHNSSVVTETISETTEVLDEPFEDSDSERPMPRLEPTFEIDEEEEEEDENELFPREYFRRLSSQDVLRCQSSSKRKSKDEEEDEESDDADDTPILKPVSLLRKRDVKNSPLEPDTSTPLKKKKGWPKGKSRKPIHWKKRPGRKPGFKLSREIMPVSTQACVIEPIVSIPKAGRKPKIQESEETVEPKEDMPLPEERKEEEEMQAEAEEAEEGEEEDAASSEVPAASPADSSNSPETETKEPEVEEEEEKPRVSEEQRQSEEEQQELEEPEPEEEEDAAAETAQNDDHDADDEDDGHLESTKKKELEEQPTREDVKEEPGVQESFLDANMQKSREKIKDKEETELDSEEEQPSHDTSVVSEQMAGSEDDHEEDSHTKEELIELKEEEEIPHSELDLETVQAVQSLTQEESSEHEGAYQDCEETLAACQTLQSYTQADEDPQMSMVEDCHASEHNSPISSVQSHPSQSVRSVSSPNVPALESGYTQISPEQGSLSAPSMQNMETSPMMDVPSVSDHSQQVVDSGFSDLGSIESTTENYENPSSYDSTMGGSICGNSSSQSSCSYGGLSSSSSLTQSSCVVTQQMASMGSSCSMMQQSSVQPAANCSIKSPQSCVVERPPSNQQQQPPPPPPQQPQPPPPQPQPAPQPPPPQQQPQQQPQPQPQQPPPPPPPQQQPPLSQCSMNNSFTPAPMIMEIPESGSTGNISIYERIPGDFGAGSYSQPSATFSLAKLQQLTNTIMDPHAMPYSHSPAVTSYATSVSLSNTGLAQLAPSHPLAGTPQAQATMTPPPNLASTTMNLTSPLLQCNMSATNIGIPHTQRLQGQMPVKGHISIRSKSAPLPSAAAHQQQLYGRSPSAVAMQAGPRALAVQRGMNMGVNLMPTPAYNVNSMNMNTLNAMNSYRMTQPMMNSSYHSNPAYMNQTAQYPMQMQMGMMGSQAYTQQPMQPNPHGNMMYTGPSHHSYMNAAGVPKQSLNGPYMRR

SMILES | DC50 (18 h of treatment) [nM] | DC50 (24 h of treatment) [nM] | Dmax (18 h of treatment) [%] | Dmax (24 h of treatment) [%]
O=C1CC[C@H](N2Cc3cc(N4CC[C@@H](CN5CCC6(CC5)CN(c5cccc(S(=O)(=O)Nc7noc8cc(Cn9cccn9)c9c(c78)OCC9)c5)C6)C4)ccc3C2=O)C(=O)N1 [Example 1, N-(4-((1H-Pyrazol-1-yl)methyl)-2,3-dihydrobenzofuro[7,6-d]isoxazol-8-yl)-3-(7-(((S)-1-(2-((S)-2,6-dioxopiperidin-3-yl)-1-oxoisoindolin-5-yl)pyrrolidin-3-yl)methyl)-2,7-diazaspiro[3.5]nonan-2-yl)benzenesulfonamide] | < 10 | 10 to 100 | > 75 | 50 to 75
O=C1CC[C@H](N2Cc3cc(N4CC[C@@H](CN5CC6(CCN(c7cccc(S(=O)(=O)Nc8noc9cc(Cn%10cccn%10)c%10c(c89)OCC%10)c7)CC6)C5)C4)ccc3C2=O)C(=O)N1 [Example 4, N-(4-((1H-Pyrazol-1-yl)methyl)-2,3-dihydrobenzofuro[7,6-d]isoxazol-8-yl)-3-(2-(((S)-1-(2-((S)-2,6-dioxopiperidin-3-yl)-1-oxoisoindolin-5-yl)pyrrolidin-3-yl)methyl)-2,7-diazaspiro[3.5]nonan-7-yl)benzenesulfonamide] | 10 to 100 |  | > 75 | 
O=C1CC[C@H](N2Cc3cc(N4CC[C@@H](CNC5CCN(c6cccc(S(=O)(=O)Nc7noc8cc(Cn9cccn9)c9c(c78)OCC9)c6)CC5)C4)ccc3C2=O)C(=O)N1 [Example 5, N-(4-((1H-Pyrazol-1-yl)methyl)-2,3-dihydrobenzofuro[7,6-d]isoxazol-8-yl)-3-(4-((((S)-1-(2-((S)-2,6-dioxopiperidin-3-yl)-1-oxoisoindolin-5-yl)pyrrolidin-3-yl)methyl)amino)piperidin-1-yl)benzenesulfonamide] |  |  | 25 to 50 | 
O=C1CCC(N2C(=O)c3ccc(N4CCC5(CC4)CC(N4CCN(c6cccc(S(=O)(=O)Nc7noc8cc(Cn9cccn9)c9c(c78)OCC9)c6)CC4)C5)cc3C2=O)C(=O)N1 (stereo not shown) [Example 6, N-(4-((1H-Pyrazol-1-yl)methyl)-2,3-dihydrobenzofuro[7,6-d]isoxazol-8-yl)-3-(4-(7-(2-(2,6-dioxopiperidin-3-yl)-1,3-dioxoisoindolin-5-yl)-7-azaspiro[3.5]nonan-2-yl)piperazin-1-yl)benzenesulfonamide] | 100 to 1000 |  | 50 to 75 | 
O=C1CCC(N2C(=O)c3ccc(N4CCC(CN5CCC(CN6CCN(c7cccc(S(=O)(=O)Nc8noc9cc(Cn%10cccn%10)c%10c(c89)OCC%10)c7)CC6)CC5)C4)cc3C2=O)C(=O)N1 (stereo not shown) [Example 8, N-(4-((1H-Pyrazol-1-yl)methyl)-2,3-dihydrobenzofuro[7,6-d]isoxazol-8-yl)-3-(4-((1-((1-(2-(2,6-dioxopiperidin-3-yl)-1,3-dioxoisoindolin-5-yl)pyrrolidin-3-yl)methyl)piperidin-4-yl)methyl)piperazin-1-yl)benzenesulfonamide] | < 10 |  | > 75 | 
O=C1CCC(N2C(=O)c3ccc(N4CCC(CN5CCC(CN6CCN(c7cccc(S(=O)(=O)Nc8noc9cc(Cn%10cccn%10)c%10c(c89)OCC%10)c7)CC6)CC5)CC4)cc3C2=O)C(=O)N1 (stereo not shown) [Example 9, N-(4-((1H-Pyrazol-1-yl)methyl)-2,3-dihydrobenzofuro[7,6-d]isoxazol-8-yl)-3-(4-((1-((1-(2-(2,6-dioxopiperidin-3-yl)-1,3-dioxoisoindolin-5-yl)piperidin-4-yl)methyl)piperidin-4-yl)methyl)piperazin-1-yl)benzenesulfonamide] | < 10 |  | 50 to 75 | 
COc1ccc(N2CC3(CCN(C[C@@H]4CCN(c5ccc6c(c5)CN([C@H]5CCC(=O)NC5=O)C6=O)C4)CC3)C2)c(OC)c1S(=O)(=O)Nc1noc2cc(Cn3cccn3)c3c(c12)OCC3 [Example 10, N-(4-((1H-Pyrazol-1-yl)methyl)-2,3-dihydrobenzofuro[7,6-d]isoxazol-8-yl)-3-(7-(((S)-1-(2-((S)-2,6-dioxopiperidin-3-yl)-1-oxoisoindolin-5-yl)pyrrolidin-3-yl)methyl)-2,7-diazaspiro[3.5]nonan-2-yl)-2,6-dimethoxybenzenesulfonamide] |  | < 10 |  | > 75

The next lines start with the values.

DC50 (18 h of treatment) [nM] | DC50 (24 h of treatment) [nM] | Dmax (18 h of treatment) [%] | Dmax (24 h of treatment) [%] | SMILES
10 to 100 |  | > 75 |  | O=C1CC[C@H](N2Cc3cc(N4CC[C@@H](CN5C[C@H]6CN(c7cccc(S(=O)(=O)Nc8noc9cc(Cn%10cccn%10)c%10c(c89)OCC%10)c7)C[C@@H]6C5)C4)ccc3C2=O)C(=O)N1 [Example 2, N-(4-((1H-Pyrazol-1-yl)methyl)-2,3-dihydrobenzofuro[7,6-d]isoxazol-8-yl)-3-((3aS,6aS)-5-(((S)-1-(2-((S)-2,6-dioxopiperidin-3-yl)-1-oxoisoindolin-5-yl)pyrrolidin-3-yl)methyl)hexahydropyrrolo[3,4-c]pyrrol-2(1H)-yl)benzenesulfonamide]
10 to 100 |  | > 75 |  | O=C1CC[C@H](N2Cc3cc(N4CC[C@@H](CN5CCC6(CC5)CCN(c5cccc(S(=O)(=O)Nc7noc8cc(Cn9cccn9)c9c(c78)OCC9)c5)CC6)C4)ccc3C2=O)C(=O)N1 [Example 3, N-(4-((1H-Pyrazol-1-yl)methyl)-2,3-dihydrobenzofuro[7,6-d]isoxazol-8-yl)-3-(9-(((S)-1-(2-((S)-2,6-dioxopiperidin-3-yl)-1-oxoisoindolin-5-yl)pyrrolidin-3-yl)methyl)-3,9-diazaspiro[5.5]undecan-3-yl)benzenesulfonamide]
100 to 1000 |  | 50 to 75 |  | O=C1CCC(N2C(=O)c3cccc(N4CCC(CN5CCN(c6cccc(S(=O)(=O)Nc7noc8cc(Cn9cccn9)c9c(c78)OCC9)c6)CC5)CC4)c3C2=O)C(=O)N1 (stereo not shown) [Example 7, N-(4-((1H-Pyrazol-1-yl)methyl)-2,3-dihydrobenzofuro[7,6-d]isoxazol-8-yl)-3-(4-((1-(2-(2,6-dioxopiperidin-3-yl)-1,3-dioxoisoindolin-4-yl)piperidin-4-yl)methyl)piperazin-1-yl)benzenesulfonamide]
 | < 10 |  | 50 to 75 | COc1ccc(N2CC3(CCN(CC4CCN(c5ccc6c(c5)C(=O)N(C5CCC(=O)NC5=O)C6=O)CC4)CC3)C2)c(OC)c1S(=O)(=O)Nc1noc2cc(Cn3cccn3)c3c(c12)OCC3 (stereo not shown) [Example 11, N-(4-((1H-Pyrazol-1-yl)methyl)-2,3-dihydrobenzofuro[7,6-d]isoxazol-8-yl)-3-(7-((1-(2-(2,6-dioxopiperidin-3-yl)-1,3-dioxoisoindolin-5-yl)piperidin-4-yl)methyl)-2,7-diazaspiro[3.5]nonan-2-yl)-2,6-dimethoxybenzenesulfonamide]
 | 10 to 100 |  | > 75 | COc1c(N2CC3(CCN(CC4CCN(c5ccc6c(c5)C(=O)N(C5CCC(=O)NC5=O)C6=O)CC4)CC3)C2)cccc1S(=O)(=O)Nc1noc2cc(Cn3cccn3)c3c(c12)OCC3 (stereo not shown) [Example 12, N-(4-((1H-Pyrazol-1-yl)methyl)-2,3-dihydrobenzofuro[7,6-d]isoxazol-8-yl)-3-(7-((1-(2-(2,6-dioxopiperidin-3-yl)-1,3-dioxoisoindolin-5-yl)piperidin-4-yl)methyl)-2,7-diazaspiro[3.5]nonan-2-yl)-2-methoxybenzenesulfonamide]
 | < 10 |  | > 75 | COc1c(N2CC3(CCN(C[C@@H]4CCN(c5ccc6c(c5)CN([C@H]5CCC(=O)NC5=O)C6=O)C4)CC3)C2)cccc1S(=O)(=O)Nc1noc2cc(Cn3cccn3)c3c(c12)OCC3 [Example 13, N-(4-((1H-Pyrazol-1-yl)methyl)-2,3-dihydrobenzofuro[7,6-d]isoxazol-8-yl)-3-(7-(((S)-1-(2-((S)-2,6-dioxopiperidin-3-yl)-1-oxoisoindolin-5-yl)pyrrolidin-3-yl)methyl)-2,7-diazaspiro[3.5]nonan-2-yl)-2-methoxybenzenesulfonamide]
 | < 10 |  | > 75 | COc1c(N2CC3(CCN(CC4CCN(c5cccc6c5C(=O)N(C5CCC(=O)NC5=O)C6=O)CC4)CC3)C2)cccc1S(=O)(=O)Nc1noc2cc(Cn3cccn3)c3c(c12)OCC3 (stereo not shown) [Example 14, N-(4-((1H-Pyrazol-1-yl)methyl)-2,3-dihydrobenzofuro[7,6-d]isoxazol-8-yl)-3-(7-((1-(2-(2,6-dioxopiperidin-3-yl)-1,3-dioxoisoindolin-4-yl)piperidin-4-yl)methyl)-2,7-diazaspiro[3.5]nonan-2-yl)-2-methoxybenzenesulfonamide]
 | 10 to 100 |  | 50 to 75 | O=C1CC[C@H](N2Cc3cc(N4CC[C@@H](CN5CCC6(CC5)CN(c5ccc(S(=O)(=O)Nc7noc8cc(Cn9cccn9)c9c(c78)OCC9)cc5)C6)C4)ccc3C2=O)C(=O)N1 [Example 15, N-(4-((1H-Pyrazol-1-yl)methyl)-2,3-dihydrobenzofuro[7,6-d]isoxazol-8-yl)-4-(7-(((S)-1-(2-((S)-2,6-dioxopiperidin-3-yl)-1-oxoisoindolin-5-yl)pyrrolidin-3-yl)methyl)-2,7-diazaspiro[3.5]nonan-2-yl)benzenesulfonamide]
